Laboratory results: patent US20080219936A1, “Skin depigmenting compositions comprising adapalene, at least one depigmenting agent and at least one anti-inflammatory agent” (GALDERMA RESEARCH AND DEVELOPMENT, priority 2005, published 2008)

Experiments:
[1] = test system: natural pigmentation of the tail of an SKH:HR2 mouse; test: Depigmenting activity on natural pigmentation, tail of non-irradiated SKH:HR2 mouse, 8 weeks; format: in vivo; details: topical in acetone 5 days a week for 8 weeks, 3% hydroquinone, 0.1% adapalene, alone or in combination
Method: The evaluation of the depigmenting and/or anti-pigmenting activity of 3% hydroquinone and of 0.1% adapalene, alone or in combination for 8 weeks, is carried out on the tail of an SKH:HR2 mouse irradiated with ultraviolet B radiation, or not irradiated.
The treatment is carried out 5 days a week for 8 weeks. 20 μl of test product diluted in acetone are applied to the tail with a gap from applications: the hydroquinone is applied in the morning and the adapalene 4 h later.
−1: slight depigmentation
−2: moderate depigmentation
−3: marked depigmentation
−4: complete depigmentation

[2] = test system: UV-induced pigmentation of the tail of an SKH:HR2 mouse; details: UV-B 90 mJ/cm^2 3 times a week; topical in acetone 5 days a week for 8 weeks; 3% hydroquinone, 0.1% adapalene
Method: The tail of the SKH:HR2 mouse is naturally pigmented and this pigmentation increases under the effect of repeated UV-B irradiation. The depigmenting activity is measured on the natural pigmentation after application of the test product to the tail of non-irradiated animals. The anti-pigmenting activity is measured by the inhibition of the induction of the UV-induced pigmentation: the test product is applied to the tail of UV-B-irradiated animals.
The treatment is carried out 5 days a week for 8 weeks. […] On the days of irradiation, the treatment is applied after irradiation.
The animals are irradiated 3 times a week for 8 weeks (Monday, Wednesday, Friday) at the dose of 90 mJ/cm^2 of UV-B.
The pigmentation is evaluated once a week before irradiation, by means of a score on a scale of 0 to 4. The scores are divided as follows: Depigmentation scale: scores −1 to −4.
Pigmentation scale: scores 1 to 4

tail of a mouse = test: Inhibition of the induction of pigmentation by UV-B radiation in irradiated and treated mice; format: in vivo; details: lower dose (0.01%)
From the text: Retinoic acid (tretinoin) is known to itself have a skin depigmenting activity (Guevara I. A. and Pandya A. G., Int. J. Dermatol., 40, 210-215 (2001)). […] Tretinoin is therefore a depigmenting agent in and of itself.

COc1ccc(-c2ccc3cc(C(=O)O)ccc3c2)cc1C12CC3CC(CC(C3)C1)C2 [adapalene, 6-[3-(1-adamantyl)-4-methoxyphenyl]-2-naphthanoic acid]
depigmenting activity (natural pigmentation score) [1]: no depigmenting activity
depigmenting activity (natural pigmentation score) ([1]; listed as Adapalene): does not modify the natural pigmentation

Oc1ccc(O)cc1 [hydroquinone]
depigmenting activity (natural pigmentation score) [1]: induces a depigmentation
anti-pigmenting activity (inhibition of pigmentation induced by UV-B irradiation) [2]: shows an anti-pigmenting effect at the 6th and at the 7th week (D50), which becomes less marked at the end of the study

CC1=C(/C=C/C(C)=C/C=C/C(C)=C/C(=O)O)C(C)(C)CCC1 [tretinoin, Retinoic acid]
inhibition of the induction of pigmentation by UV-B radiation (tail of a mouse): no effect
